We go through three compounds from patent US20240010987A1, “IN VITRO LIVER DISEASE MODEL USING TRIPLE CO-CULTURE AND PREPARATION METHOD THEREOF” (FUTURE MEDICINE CO., LTD., priority 2020, published 2024).

The test system of one assay is A3 adenosine receptor. To be noted: in vivo experiments, EXCLI J. 2020 Feb. 12; 19:187-200; cited from earlier work.
The test system of assay [1] is HuH-7:LX-2:ImKC triple co-culture. The assay can be described thus: Marker changes in triple co-culture in vitro liver disease model (steatosis, inflammation, fibrosis) after drug treatment. The class given is cell-based, human (HuH-7, mouse (ImKC). To be noted: hepatic steatosis (FFA), inflammation (FFA+LPS) or fibrosis (FFA+TGF-β1) induced; FIGS. 5 to 14. Here is the method: After the cells were fixed for 1 hour for direct co-culture, a 0.4 μm pore size cell culture insert (Corning™) was positioned on top of a direct co-culture dish for indirect co-culture of the corresponding cells with an immortalized mouse Kupffer cell line (ImKC). The cell suspensions of the immortalized mouse Kupffer cell line (ImKC) were added to the positioned cell culture insert (Corning™) such that the number of cells per area was 15,000 cells/cm^2, and the cells were cultured in a CO2 incubator (Thermo Scientific™) under 37° C. and 5% CO2 conditions for 24 hours (FIG. 1).
The cell culture dishes for each experimental group shown in the following Table 3, which was cultured for 24 hours in a CO2 incubator (Thermo Scientific™) under 37° C. and 5% CO2 conditions at 24 hours before FFA treatment, were taken out, the cell culture medium was carefully discarded, and a co-culture medium including 1,000 μM FFA (oleic:palmitic molar ratio 2:1) was added thereto. After FFA treatment, the cell culture dishes were incubated in a CO2 incubator (Thermo Scientific™) under 37° C. and 5% CO2 conditions for 144 hours. The co-culture medium including FFA was replaced at 48 and 96 hours after FFA treatment (FIG. 4).
The cell culture dishes for each experimental group shown in Table 3, which was cultured in a CO2 incubator (Thermo Scientific™) under 37° C. and 5% CO2 conditions at 72 and 96 hours before LPS treatment, were taken out, the cell culture medium was carefully discarded, and a culture medium including 0.5 ng/ml LPS was added to 1,000 μM FFA (oleic:palmitic molar ratio 2:1). After LPS treatment, the cell culture dishes were incubated in a CO2 incubator (Thermo Scientific™) under 37° C. and 5% CO2 conditions for 48 and 72 hours. […]
The absorbance of each cell culture treated with FM101 and the control material was measured in the same manner as in Experimental Example 3-1.
The absorbance of each cell culture treated with FM101 and the control material was measured in the same manner as in Experimental Example 3-2. […]

Structures are written as SMILES.

As to `OC1CSC(n2cnc3c(NCc4cccc(Cl)c4)nc(Cl)nc32)C1O` (stereo not shown) [FM101], the “modulation of A3 adenosine receptor as A3AR ligand” value in the assay on A3 adenosine receptor is “modulates an A3 adenosine receptor”. Also, in assay [1], the “responsiveness of markers in triple co-culture cells on drug treatment, compared to directly co-cultured cells” value is “higher responsiveness and more concentration-dependent responsiveness”. For the compound `CNC(=O)[C@H]1O[C@@H](n2cnc3c(NCc4cccc(I)c4)nc(Cl)nc32)[C@H](O)[C@@H]1O` [CF102, Namodenoson], the “responsiveness of markers in triple co-culture cells on drug treatment, compared to directly co-cultured cells” value in assay [1] is “higher responsiveness and more concentration-dependent responsiveness”.

Regarding `CC(C)c1cc(Oc2c(Cl)cc(-n3nc(C#N)c(=O)[nH]c3=O)cc2Cl)n[nH]c1=O` [MGL-3196, Resmetirom], the “responsiveness of markers in triple co-culture cells on drug treatment, compared to directly co-cultured cells” value in assay [1] was “higher responsiveness and more concentration-dependent responsiveness”.
